{
  "source": "patent US11459586B2",
  "about": "“Methods for increasing efficiency of nuclease-mediated gene editing in stem cells” (President and Fellows of Harvard College, priority 2016, dated 2022)",
  "key": {"[1]": {"tested_on": "human iPSC", "type": "cell-based", "conditions": "for rescue of hiPSC from cell death (anoikis) after nucleofection: viable cells two days after nucleofection, sgRNA plasmid or pUC19 control", "description": "FIGS. 10A-F. Effect of Caspase and p38 MAPK inhibitors on survival and gene targeting of human iPSC. FIG. 10A and FIG. 10B. Mouse Thy1 gene targeting scheme. Human iPSC were nucleofected with the mThy1 targeting vector, Cas9 nuclease, and Thy1 sgRNA expressing plasmid or pUC19 empty vector. Nucleofected cells were evenly divided and plated onto plain media (mTeSR1+10 μM Y-27632 ROCK inhibitor), or media supplemented with the indicated chemical inhibitor. For specific caspase inhibitors, the principal caspase they target is noted in parentheses. […] FIG. 10C. Two days after nucleofection, viable cells were counted. Error bars indicate s.e.m. of technical duplicates. Lines mark the count levels for nucleofected cells in plain media with or without sgRNA. FIG. 10D. Five days after transfection, cells were analyzed by flow cytometry for mThy1 and hThy1 expression. The percent of mThy1^+hThy1^− (bottom of each bar) and mThy1^+hThy1^+ (top of each bar) cells of live single cells is indicated. Lines mark the levels for cells in plain media. […] FIG. 10E. FACS plots of human iPSC transfected with the mThy1 targeting vector, Cas9 nuclease, and Thy1 Left and Right sgRNAs. Cells were subsequently cultured for 5 days in plain media±50 μM zVAD and ±10 μM SB203580. FIG. 10F. Human iPSC cultures were single cell FACS sorted into 96-well tissue culture plates containing a MEF feeder layer and hES media supplemented with SMC4 inhibitors±50 μM zVAD for eight days. Ten days after sorting, the number of surviving iPSC colonies was counted (from 190 cells sorted). PGP1 hiPSC lines created using retroviral vectors or non-integrating methods were both tested.\nPluripotency of iPSC cultures was verified by flow cytometry staining using anti-human Tra-1/60 PE (TRA-1-60, BD) and anti-human Oct3/4 eFluor 660 (EM92, eBioscience) with the fixation buffer sold under the trademark BD CYTOFIX™ and permeabilization buffer sold under the trademark PHOSFLOW™ Perm/Wash buffers. Human g-band karyotype analysis was done by Cell Line Genetics. Viable cell counts were measured with the cell analyzer sold under the trademark MUSE® Count & Viability Assay kit (EMD Millipore). Anti-human HLA-A2 APC (BB7.2) and anti-human HLA-BC PE (B1.23.2) were purchased from eBioscience. Human iPSC cultures were treated with 50 ng/ml recombinant interferon gamma (eBioscience) for 2 days prior to HLA staining.\nPlasmids were purified using the plasmid DNA purification kit sold under the trademark Qiagen ENDOFREE® Plasmid Maxi kit and nucleofected into iPSC cells using the Lonza 4D-Nucleofector X unit (Buffer P3, Program CB-150). For each 20 μl nucleofection reaction, 0.2-0.5×106 iPSC were transfected with up to 4 μg of plasmid DNA. Post-nucleofection, iPSC were plated onto solubilized basement membrane matrix secreted by Engelbreth-Holm-Swarm (EHS) mouse sarcoma cells sold under the trademark […]®-coated wells containing feeder-free cell culture medium sold under the trademark MTESR1™ media with 10 μM Y-27632 plus other chemical inhibitors when noted. Later experiments included 50 μM zVAD-fmk (Bachem) for 1 day and 10 μM SB203580 (Biovision) for 4-5 days post transfection (see FIGS. 5, 6, 11, and 12). For FIG. 6 (ssODN transfection), 200 ng/ml recombinant B 18R (eBioscience), was also added to the culture for 5 days post transfection.\nThe following inhibitors were added to the hiPSC culture at the concentrations and time periods indicated in the Examples below. • 1. p53 or Bax inhibitors: cyclic pifithrin α (StemCell Technologies); pifithrin (Tocris); peptide V5, peptide control, iMAC1 and iMAC2 (EMD Millipore); N-acetyl cysteine and 4-hydroxy TEMPO (TEMPOL) (Sigma). • 2."}, "[2]": {"tested_on": "human iPSC", "test": "mThy1 gene targeting in hiPSC with chemical inhibitors added after nucleofection (flow cytometry)", "type": "cell-based", "conditions": "for mThy1 gene targeting efficiencies: PGP1 hiPSC, administered after plasmid nucleofection, indicated concentrations (FIG. 9D)", "description": "FIGS. 9A-G. Effects of chemical and genetic inhibitors on mThy1 gene targeting in hiPSC. FIG. 9A. Mouse Thy1 gene targeting scheme. Human iPSC were nucleofected with the mThy1 targeting vector system plasmids and analyzed by flow cytometry five days later. The percentages of mThy1^+hThy1^−, mThy1^+hThy1^+, and mThy1^−hThy1^− cells for each sample (gated on live single cells) are graphed. Lines mark the percentage values for the control sample. FIGS. 9B-9D. Human iPSC were nucleofected with: 2 μg mThy1 targeting vector; 0.5 μg Cas9 plasmid; and 1.5 μg of sgRNA plasmids. The sample was divided into multiple wells and cultured in plain media (mTeSR1+10 μM Y-27632 ROCK inhibitor) supplemented with the indicated chemical inhibitor for three days. 20 μM pifithrin α, 200 μM peptide V5 (VPMLK, SEQ ID NO:31), 200 μM peptide control (IPMIK, SEQ ID NO:32), 50 μM TEMPOL, or the indicated concentrations of SCR7 or L755507 were used. FIG. 9B, mThy1^+hThy1^− (bottom portion of each bar in each graph), mThy1^+hThy1^+ (top portion of each bar in each graph). FIG. 9C, mThy1^+hThy1^− (bottom portion of each bar in each graph), mThy1^+hThy1^+ (top portion of each bar in left and center graphs, middle portion of each bar in right graph), and mThy1^−hThy1^− (top portion of each bar in right graph). FIG. 9D, mThy1^+hThy1^− (bottom portion of each bar in each graph), mThy1^+hThy1^+ (center portion of each bar in each graph), and mThy1^−hThy1^− (top portion of each bar in each graph). FIGS. 9E-9F. Human iPSC were nucleofected with: 2 μg mThy1 targeting vector plasmid; 0.5 μg Cas9 plasmid; 1 μg of sgRNA plasmids; and 0.5 μg of plasmid expressing the indicated DNA repair gene or pUC19 control (“Cas9 only”). For FIG. 9E, cultures were treated with 50 μM zVAD and 10 μM SB203580 post transfection. mThy1^+hThy1^− (bottom portion of each bar in each graph), mThy1^+hThy1^+ (top portion of each bar in left and center graphs, middle portion of each bar in right graph), and mThy1^−hThy1^− (top portion of each bar in right graph). FIG. 9F, mThy1^+hThy1^− (bottom portion of each bar in each graph), mThy1^+hThy1^+ (top portion of each bar in left and center graphs, middle portion of each bar in right graph), and mThy1^−hThy1^− (top portion of each bar in right graph). FIG. 9G. Human iPSC were nucleofected with: 2 μg mThy1 targeting vector plasmid; 0.5 μg Cas9 plasmid; and 1.5 μg of sgRNA plasmids. The indicated viral inhibitor genes were cloned into the Cas9 expression vector following an IRES sequence. Cultures were supplemented with 50 μM zVAD post transfection. mThy1^+hThy1^− (bottom portion of each bar in each graph), mThy1^+hThy1^+ (top portion of each bar in left and center graphs, middle portion of each bar in right graph), and mThy1^−hThy1^− (top portion of each bar in right graph).\nFIGS. 10A-F. Effect of Caspase and p38 MAPK inhibitors on survival and gene targeting of human iPSC. FIG. 10A and FIG. 10B. Mouse Thy1 gene targeting scheme. Human iPSC were nucleofected with the mThy1 targeting vector, Cas9 nuclease, and Thy1 sgRNA expressing plasmid or pUC19 empty vector. Nucleofected cells were evenly divided and plated onto plain media (mTeSR1+10 μM Y-27632 ROCK inhibitor), or media supplemented with the indicated chemical inhibitor. For specific caspase inhibitors, the principal caspase they target is noted in parentheses. As observed in previous reports, most of the nuclease-mediated cell death occurred between days 1-2 post transfection, and the proportions of mThy1^+ cells remained stable beyond day 5. FIG. 10C. Two days after nucleofection, viable cells were counted. Error bars indicate s.e.m. of technical duplicates. Lines mark the count levels for nucleofected cells in plain media with or without sgRNA. FIG. 10D. Five days after transfection, cells were analyzed by flow cytometry for mThy1 and hThy1 expression. The percent of mThy1^+hThy1^− (bottom of each bar) and mThy1^+hThy1^+ (top of each bar) cells of live single cells is indicated. […]"}, "[3]": {"conditions": "10 μM SB203580 added to hiPSC media after nucleofection"}},
  "note": "Where two headings read alike, the source gives them in different places. Peptide text beside a SMILES is read from it. * marks the point of attachment. Cbz = O=C(OCc1ccccc1)*; CH2F = FC*",
  "data": [
    {"molecule": "COC(=O)CC[C@H](NC(=O)[C@H](CC(=O)OC)NC(=O)OCc1ccccc1)C(=O)N[C@H](C(=O)N[C@@H](CC(=O)OC)C(=O)CF)C(C)C", "note": "[zDEVD-fmk]", "values": [
      {"measurement": "anoikis rescue", "setting": "[1]; lower concentration, 25 μM", "value": "did not show as much anoikis rescue"},
      {"measurement": "rescue of hiPSC from cell death (anoikis) after nucleofection", "setting": "[1]", "value": "prevented anoikis"}
    ]},
    {"molecule": "COC(=O)CC[C@H](NC(=O)[C@H](CC(C)C)NC(=O)OCc1ccccc1)C(=O)N[C@@H](Cc1cnc[nH]1)C(=O)N[C@@H](CC(=O)OC)C(=O)CF", "note": "[zLEHD-fmk] (Cbz-LE(OMe)HD(OMe)-CH2F)", "values": [
      {"measurement": "toxicity to hiPSC", "setting": "[1]; after nucleofection, higher concentration than 25 μM (FIG. 10C)", "value": "very toxic"},
      {"measurement": "toxicity to hiPSC", "setting": "[1]; lower concentration, 25 μM", "value": "did not show as much"}
    ]},
    {"molecule": "CCCCCCNC(=O)Nc1ccc(S(=O)(=O)Nc2ccc(CCNC[C@H](O)COc3ccc(O)cc3)cc2)cc1", "note": "[L755507]", "values": [
      {"measurement": "mThy1 gene targeting efficiencies", "setting": "[2]", "value": "neither the DNA ligase IV inhibitor SCR7 (Maruyama et al., 2015) nor the β3-adrenergic receptor agonist L755507 (Yu et al., 2015) improved mThy1 gene targeting efficiencies"}
    ]},
    {"molecule": "CC1(C)CC(O)CC(C)(C)N1[O]", "note": "[TEMPOL, 4-hydroxy TEMPO]", "values": [
      {"measurement": "mThy1 gene targeting in hiPSC", "setting": "[2]; 50 μM TEMPOL in media for three days after nucleofection", "value": "no effect"}
    ]},
    {"molecule": "C[S+]([O-])c1ccc(-c2nc(-c3ccncc3)c(-c3ccc(F)cc3)[nH]2)cc1", "note": "(stereo not shown) [SB203580]", "values": [
      {"measurement": "gene targeting efficiency", "setting": "[2]; [3]", "value": "did enhance gene targeting efficiency"},
      {"measurement": "cell survival", "setting": "[1]; [3]", "value": "did not affect cell survival"}
    ]},
    {"molecule": "COC(=O)C[C@H](NC(=O)[C@H](C)NC(=O)[C@@H](NC(=O)OCc1ccccc1)C(C)C)C(=O)CF", "note": "[zVAD(OMe)-fmk] (Cbz-Val-Ala-Asp(OMe)-CH2F)", "values": [
      {"measurement": "rescue of hiPSC from cell death (anoikis) after nucleofection", "setting": "[1]", "value": "rescued cells transfected with an sgRNA, and also those transfected with the pUC19 control"}
    ]},
    {"molecule": "O=c1[nH]c(=S)[nH]c(N=Cc2ccccc2)c1N=Cc1ccccc1", "note": "[SCR7]", "values": [
      {"measurement": "mThy1 gene targeting efficiencies", "setting": "[2]", "value": "neither the DNA ligase IV inhibitor SCR7 (Maruyama et al., 2015) nor the β3-adrenergic receptor agonist L755507 (Yu et al., 2015) improved mThy1 gene targeting efficiencies"}
    ]},
    {"molecule": "VPMLK (peptide V5)", "values": [
      {"measurement": "mThy1 gene targeting in hiPSC", "setting": "[2]; 200 μM peptide V5 in media for three days after nucleofection", "value": "only a very slight improvement in gene targeting"}
    ]},
    {"molecule": "Cc1ccc(C(=O)Cn2c3c(sc2=N)CCCC3)cc1", "note": "[Pifithrin α]", "values": [
      {"measurement": "mThy1 gene targeting in hiPSC", "setting": "[2]; 20 μM pifithrin α in media for three days after nucleofection", "value": "did not enhance hiPSC gene targeting"}
    ]},
    {"molecule": "COC(=O)CC[C@H](NC(=O)[C@H](C)NC(=O)OCc1ccccc1)C(=O)N[C@H](C(=O)N[C@@H](CC(=O)OC)C(=O)CF)C(C)C", "note": "[zAEVD-fmk] (Cbz-AE(OMe)VD(OMe)-CH2F)", "values": [
      {"measurement": "rescue of hiPSC from cell death (anoikis) after nucleofection", "setting": "[1]", "value": "prevented anoikis"}
    ]}
  ]
}
